Results reported in ChEMBL document CHEMBL4265874 (Eur J Med Chem, 2017).

How the values were obtained:
[1] = dog, mdckii-le
Description: (§1) Intrinsic absorptive permeability from basolateral side to apical side of dog RRCK cells

[2] = dog, mdckii-le; remark: listed apart in the source
Description: (§2) Intrinsic absorptive permeability from apical side to basolateral side of dog RRCK cells

physchem = conditions: octanol/water, pH 7.4
in vitro [3] = conditions: human, liver microsomes
Description: Intrinsic clearance in human liver microsomes

[4] = biological target: Proto-oncogene tyrosine-protein kinase ROS (Homo sapiens, UniProt P08922, G2032R)
in vivo [5] = conditions: rat, CSF / free plasma
Description: Ratio of AUC in CSF to free plasma in rat

in vivo [6] = conditions: rat, brain / plasma
Description: Ratio of fAUC in brain to plasma in rat

in vitro [7] = conditions: dog, MDCK
Description: as §1

in vitro [8] = conditions: dog, MDCK; remark: listed apart in the source
Description: as §2

Chain of Proto-oncogene tyrosine-protein kinase ROS (P08922 28-2347 G2032R limits assumed): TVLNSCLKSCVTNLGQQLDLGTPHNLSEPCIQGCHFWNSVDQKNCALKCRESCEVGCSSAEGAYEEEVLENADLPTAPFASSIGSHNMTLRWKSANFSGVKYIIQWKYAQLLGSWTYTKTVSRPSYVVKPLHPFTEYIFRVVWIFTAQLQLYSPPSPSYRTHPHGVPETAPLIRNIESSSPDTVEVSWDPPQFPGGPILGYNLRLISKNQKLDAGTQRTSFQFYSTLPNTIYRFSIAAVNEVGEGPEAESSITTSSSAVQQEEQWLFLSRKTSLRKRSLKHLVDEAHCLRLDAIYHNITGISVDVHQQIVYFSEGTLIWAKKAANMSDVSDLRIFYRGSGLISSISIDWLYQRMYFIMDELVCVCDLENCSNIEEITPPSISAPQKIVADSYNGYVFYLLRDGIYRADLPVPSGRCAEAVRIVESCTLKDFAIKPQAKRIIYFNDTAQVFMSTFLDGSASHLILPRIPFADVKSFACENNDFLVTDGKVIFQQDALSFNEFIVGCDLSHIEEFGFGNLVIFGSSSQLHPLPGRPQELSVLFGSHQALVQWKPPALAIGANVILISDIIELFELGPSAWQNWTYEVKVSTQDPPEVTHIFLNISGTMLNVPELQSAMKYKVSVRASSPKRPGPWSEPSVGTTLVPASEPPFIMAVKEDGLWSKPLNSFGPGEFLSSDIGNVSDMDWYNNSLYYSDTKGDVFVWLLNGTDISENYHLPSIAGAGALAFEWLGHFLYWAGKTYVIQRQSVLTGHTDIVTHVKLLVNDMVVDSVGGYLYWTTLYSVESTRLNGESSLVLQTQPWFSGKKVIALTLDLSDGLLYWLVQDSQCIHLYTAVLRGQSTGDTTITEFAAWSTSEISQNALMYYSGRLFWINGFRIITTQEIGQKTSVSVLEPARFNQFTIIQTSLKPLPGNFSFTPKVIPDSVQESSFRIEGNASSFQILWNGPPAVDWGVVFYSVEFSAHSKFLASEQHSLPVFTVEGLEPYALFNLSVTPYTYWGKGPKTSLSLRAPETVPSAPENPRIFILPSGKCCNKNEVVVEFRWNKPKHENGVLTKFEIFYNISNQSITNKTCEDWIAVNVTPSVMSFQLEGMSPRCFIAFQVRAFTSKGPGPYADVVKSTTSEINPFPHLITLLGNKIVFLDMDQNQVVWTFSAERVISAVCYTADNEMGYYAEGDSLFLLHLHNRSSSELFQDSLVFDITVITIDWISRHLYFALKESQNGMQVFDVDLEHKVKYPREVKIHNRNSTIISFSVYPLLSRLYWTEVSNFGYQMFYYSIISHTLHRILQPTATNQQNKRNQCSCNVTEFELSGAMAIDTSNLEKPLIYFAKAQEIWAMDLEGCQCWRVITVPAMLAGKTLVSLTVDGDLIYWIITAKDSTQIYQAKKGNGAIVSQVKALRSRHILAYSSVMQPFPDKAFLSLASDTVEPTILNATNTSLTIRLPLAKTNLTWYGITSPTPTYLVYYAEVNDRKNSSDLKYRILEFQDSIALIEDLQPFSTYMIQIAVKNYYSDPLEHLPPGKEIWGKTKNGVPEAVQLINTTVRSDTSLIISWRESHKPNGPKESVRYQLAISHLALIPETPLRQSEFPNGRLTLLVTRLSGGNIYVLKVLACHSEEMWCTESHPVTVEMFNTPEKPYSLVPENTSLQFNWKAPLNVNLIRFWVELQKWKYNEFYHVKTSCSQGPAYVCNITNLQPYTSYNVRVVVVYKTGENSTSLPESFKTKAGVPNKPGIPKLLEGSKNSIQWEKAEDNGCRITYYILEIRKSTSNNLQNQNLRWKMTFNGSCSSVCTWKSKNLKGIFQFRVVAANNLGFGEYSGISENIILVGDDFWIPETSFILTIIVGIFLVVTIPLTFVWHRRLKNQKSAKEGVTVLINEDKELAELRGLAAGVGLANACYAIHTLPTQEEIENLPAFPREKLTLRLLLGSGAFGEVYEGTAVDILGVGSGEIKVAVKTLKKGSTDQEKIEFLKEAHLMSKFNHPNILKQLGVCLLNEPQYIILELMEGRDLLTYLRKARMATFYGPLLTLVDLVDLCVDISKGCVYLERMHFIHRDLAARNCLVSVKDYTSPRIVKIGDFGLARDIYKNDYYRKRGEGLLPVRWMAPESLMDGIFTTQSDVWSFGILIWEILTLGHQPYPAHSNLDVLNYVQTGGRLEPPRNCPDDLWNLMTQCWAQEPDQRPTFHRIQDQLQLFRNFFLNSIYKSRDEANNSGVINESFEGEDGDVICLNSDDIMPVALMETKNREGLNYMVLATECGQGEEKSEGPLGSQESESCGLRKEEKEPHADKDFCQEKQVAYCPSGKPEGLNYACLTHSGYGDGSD

Cc1[nH][n+](C)c2c1-c1cnc(N)c(c1)O[C@H](C)c1cc(F)ccc1C(=O)N(C)C2
Papp [1]: 28.3 ×10⁻⁶ cm/s
Papp [2]: 8.1 ×10⁻⁶ cm/s
logD (physchem): 2.2
CLint scaled (in vitro [3]): 8.6 mL/min/kg

CCc1cc2c(cc1N1CCC(N3CCOCC3)CC1)C(C)(C)c1[nH]c3cc(C#N)ccc3c1C2=O [ALECTINIB]
Ki [4]: > 3 µM

C[C@H]1Oc2cc(cnc2N)-c2c(nn(C)c2C#N)CN(C)C(=O)c2ccc(F)cc21 [LORLATINIB]
Kp uu (in vivo [5]): 0.31
Kp uu (in vivo [6]): 0.21
Papp B→A (in vitro [7]): 28 ×10⁻⁶ cm/s
Papp A→B (in vitro [8]): 19.3 ×10⁻⁶ cm/s
